Test results as given in US20220233553A1, “CELLULAR SENESCENCE ACTIVATING COMPOUNDS” (UNIVERSIDAD NACIONAL AUTONOMA DE MEXICO, priority 2019, published 2022).

How the values were obtained:
K562 (leukemia) = experiment: Effect on cell lines (CI50, % growth inhibition); format: cell-based; settings: Homo sapiens; for IC50: K562, read-out: CI50 ± EE, μM K562 (leukemia)
U251 (CNS) = experiment: Effect on cell lines (CI50, % growth inhibition); format: cell-based; settings: Homo sapiens; for IC50: U-251, read-out: CI50 ± EE, μM U251 (CNS)
HCT-15 (colon) = experiment: Effect on cell lines (CI50, % growth inhibition); format: cell-based; settings: Homo sapiens; for IC50: HCT-15, read-out: CI50 ± EE, μM HCT-15 (colon)
PC-3 (prostate) = experiment: Effect on cell lines (CI50, % growth inhibition); format: cell-based; settings: for IC50: Homo sapiens, PC-3, read-out: CI50 ± EE, μM PC-3 (prostate)
HCT-116 = experiment: Cytotoxicity against colon cancer cell lines, 24, 48 and 72 hours; format: cell-based
lung (SKUL) = experiment: % growth inhibition in cell lines; format: cell-based
β-galactosidase enzyme = experiment: β-galactosidase activity (cellular senescence) in colon cancer cell lines; format: cell-based; settings: 72 hours, 30 μM, colon cancer cell lines HCT-116 and HCT-15
Experimental: FIG. 12. A) β-galactosidase activity in HCT-116 cells, B) β-galactosidase activity in HCT-15 cells, C) Cell control of the HCT-116 cell line, D) HCT-116 cells treated with In […] for 72 hours.
Now, as already mentioned above, the mechanism by which In exerts an antitumor effect without generating cytotoxicity on healthy cells is through the induction of cellular senescence.

SW-620 = experiment: Cytotoxicity against colon cancer cell lines, 24, 48 and 72 hours; format: cell-based
[1] = tested on: HCT-116 cell xenotransplantation; experiment: Cell morphology in tumor tissues (hematoxylin-eosin, DAPI); settings: tumor tissues of treated mice vs control group
HCT-116 cancer cells = experiment: Xenotransplantation study, antitumor activity; format: in vivo, mice; settings: for reduction in tumor size: vs untreated mouse
Excerpt: The arrows indicate the days of compound administration, in a regimen of 1 administration per week for 3 weeks, each point represents the average and SD of 6 mice.
The arrows indicate the days of administration, with 3 administrations per week for 3 weeks, each point representing the mean±SD of 6 mice.

HCT-116 line = experiment: Apoptosis induction, double labeling with annexin V and IP; format: cell-based; settings: 30 μM, 72 hours of treatment
Excerpt: FIG. 2. Results of the apoptosis induction using a double labeling with annexin V and IP, due to the effect of compound In.

HCT-15 = experiment: Cytotoxicity against colon cancer cell lines, 24, 48 and 72 hours; format: cell-based
breast (MCF-7) = experiment: % growth inhibition in cell lines; format: cell-based; settings: Homo sapiens, MCF7
[2] = tested on: proliferating cell nuclear antigen (PCNA); experiment: PCNA immunolabelling of xenotransplanted tumor tissue; settings: groups treated at different doses; control group 54.81%±15.63
[3] = Toxicity in nu/nu mice (LD50, weight, physical or behavioral changes); format: in vivo
Excerpt: FIG. 7. […] Each point in the graphs represents the mean±SD of the weight of 3 mice per experimental group.

[4] = Blood parameters of the treated mice
[5] = 2 mg/Kg, administration 3 (times a week)

CC1(C)c2oncc2C[C@]23C[C@]24CC[C@]2(C)C([C@]5(C)CC[C@H](C(C)(C)O)O5)[C@@H](O)C[C@@]2(C)C4CCC13 (some centres unmarked) [Ii]
IC50 (K562 (leukemia)): 11 ± 1.05 µM | IC50 (U251 (CNS)): 11.3 ± 1.55 µM | IC50 (HCT-15 (colon)): 10.2 ± 0.77 µM | IC50 (PC-3 (prostate)): 13 ± 3.56 µM

CC(=O)O[C@H]1C[C@@]2(C)C3CCC4C(C)(C)C(=O)C=C[C@@]45C[C@@]35CC[C@]2(C)C1[C@]1(C)CC[C@H](C(C)(C)OC(C)=O)O1 (some centres unmarked) [Ic]
IC50 (K562 (leukemia)): > 100 µM | IC50 (U251 (CNS)): 58.4 ± 4 µM | IC50 (HCT-15 (colon)): > 100 µM | IC50 (PC-3 (prostate)): 13.9 ± 0.324 µM

CC(=O)O[C@H]1C[C@@]2(C)C3CCC4C(C)(C)/C(=N/O)CC[C@@]45C[C@@]35CC[C@]2(C)C1[C@]1(C)CC[C@H](C(C)(C)OC(C)=O)O1 (some centres unmarked) [Ig]
IC50 (K562 (leukemia)): 15.2 ± 2.35 µM | IC50 (U251 (CNS)): 21.4 ± 1.67 µM | IC50 (HCT-15 (colon)): 28.9 ± 3.17 µM | IC50 (PC-3 (prostate)): 12.6 ± 2.42 µM

CC1(C)C(=O)CC[C@]23C[C@]24CC[C@]2(C)C([C@]5(C)CC[C@H](C(C)(C)O)O5)[C@@H](O)C[C@@]2(C)C4CCC13 (some centres unmarked) [In, Argentantine A]
IC50 (K562 (leukemia)): 38.6 ± 4.47 µM | inhibition at 50 µM (K562 (leukemia); 50 μM, K562): 38.6% | IC50 (HCT-116; Homo sapiens, HCT-116, incubation 24 h): 87.83 ± 0.7 µM | IC50 (HCT-116; Homo sapiens, HCT-116, incubation 48 h): 53.33 ± 0.2 µM | IC50 (HCT-116; Homo sapiens, HCT-116, incubation 72 h): 43.17 ± 0.4 µM | inhibition at 50 µM (lung (SKUL)): 0% | β-galactosidase enzyme activity (β-galactosidase enzyme): observed predominantly in cells of the HCT-116 line | IC50 (SW-620; Homo sapiens, SW-620, incubation 24 h): 115.6 ± 0.4 µM | IC50 (SW-620; Homo sapiens, SW-620, incubation 48 h): 72.46 ± 0.2 µM | IC50 (SW-620; Homo sapiens, SW-620, incubation 72 h): 61.3 ± 1.2 µM | IC50 (U251 (CNS)): 27.3 ± 1 µM | inhibition at 50 µM (U251 (CNS); U-251, 50 μM, U251): 27.3% | fragmented nuclei (DAPI labeling) as signal of cell death [1]: no fragmented nuclei | reduction in tumor size (HCT-116 cancer cells; 250 mg/kg once a week for 21 days): 49.1% | reduction of the tumor (HCT-116 cancer cells; 250 mg/kg three times a week for 21 days, vs untreated mice): 78.1% | reduction in tumor size (HCT-116 cancer cells; 500 mg/kg once a week for 21 days): 48.8% | apoptosis induction (HCT-116 line): only induced apoptosis in the HCT-116 line | IC50 (HCT-15; Homo sapiens, HCT-15, incubation 24 h): 95.43 ± 0.6 µM | IC50 (HCT-15; Homo sapiens, HCT-15, incubation 48 h): 59.7 ± 1.3 µM | IC50 (HCT-15; Homo sapiens, HCT-15, incubation 72 h): 44.8 ± 0.9 µM | inhibition at 50 µM (breast (MCF-7)): 26.6% | IC50 (HCT-15 (colon)): 31.7 ± 1.1 µM | inhibition at 50 µM (HCT-15 (colon); 50 μM, HCT-15): 31.7% | inhibition at 50 µM (PC-3 (prostate); 50 μM, PC-3): 20.2% | IC50 (PC-3 (prostate)): 20.2 ± 3.44 µM | quantification of PCNA (percentage of PCNA positive cells) [2]: 10-20% | physical or behavioral changes ([3]; 500 mg/kg once a week and 250 mg/kg three times a week for three weeks): no physical or behavioral changes | weight loss ([3]; 250 and 500 mg/kg): does not cause weight loss | toxicity ([3]; 500, 250 or 125 mg/kg once a week for 3 weeks, nu/nu mice): does not show toxicity | LD50 at 3 weeks ([3]; mouse, in vivo, intraperitoneal, nu/nu mice, read-out: mean lethal dose (LD50)): > 500 mg/kg

N.N.[Cl][Pt][Cl] [Cisplatin]
Alanine aminotransferase [4, 5]: 75.21 UL | Aspartate aminotransferase [4, 5]: 197.32 UL | Creatinine [4, 5]: 43.3 μM/l | Erythrocytes [4, 5]: 7.14e+12 L⁻¹ | Glucose [4, 5]: 7.80 mmol/L | Hemoglobin [4, 5]: 113 g/L | Leukocytes [4, 5]: 1.6e+09 L | Lymphocytes [4, 5]: 0.52 × × 10^9/l | Urea [4, 5]: 9.06 mmol/L | Alanine aminotransferase ([4]; 4 mg/Kg, once a week): 62.89 UL | Aspartate aminotransferase ([4]; 4 mg/Kg, once a week): 151.25 UL | Creatinine ([4]; 4 mg/Kg, once a week): 29.06 μM/l | Erythrocytes ([4]; 4 mg/Kg, once a week): 7.36e+12 L⁻¹ | Glucose ([4]; 4 mg/Kg, once a week): 8.56 mmol/L | Hemoglobin ([4]; 4 mg/Kg, once a week): 115 g/L | Leukocytes ([4]; 4 mg/Kg, once a week): 2.1e+09 L | Lymphocytes ([4]; 4 mg/Kg, once a week): 5.2e+08 L⁻¹ | Urea ([4]; 4 mg/Kg, once a week): 7.57 mmol/L | Leukocytes ([4]; 4 mg/kg once a week and mg/kg three times a week for 3 weeks): decreased leukocytes | IC50 (HCT-116; HCT-116, incubation 24 h): 10.8 ± 0.7 µM | IC50 (HCT-116; HCT-116, incubation 48 h): 8.37 ± 0.5 µM | IC50 (HCT-116; HCT-116, incubation 72 h): 3.09 ± 0.3 µM | IC50 (SW-620; SW-620, incubation 24 h): 18 ± 0.5 µM | IC50 (SW-620; SW-620, incubation 48 h): 13.9 ± 0.4 µM | IC50 (SW-620; SW-620, incubation 72 h): 9.09 ± 0.3 µM | tumor reduction compared with In 250 mg/kg (HCT-116 cancer cells; 2 mg/kg three times a week for 21 days): equivalent | IC50 (HCT-15; HCT-15, incubation 24 h): 12.5 ± 0.5 µM | IC50 (HCT-15; HCT-15, incubation 48 h): 10.7 ± 0.6 µM | IC50 (HCT-15; HCT-15, incubation 72 h): 4.68 ± 0.3 µM
